Data reported in patent US20250122171A1, “Substituted Amine Compounds, Compositions and Methods of Use” (Deep Apple Therapeutics, Inc., priority 2023, published 2025).
pIC50: −log10 of the molar value.

What was measured:
Assay type in all cases: cell-based
[1] = test system: LAD-2 cells; assay: LAD2 Degranulation Assay (Protocol 1), β-hexosaminidase release; conditions: Homo sapiens, 1 μM Cortistatin-14, 30 minute preincubation, top concentration 3 μM
Experimental: (§1) LAD-2 cells were maintained at 37° C. with 5% CO2 and grown in complete StemPro-34 media supplemented with 1% L-Glutamate, 1% penicillin/streptomycin, and 250 ng/mL human SCF.
On the day of experiment, cells were collected by centrifugation and seeded in 384-well assay plates, at 4,000 cells per well in 10 μl freshly made assay buffer (10 mM HEPES, 130 mM NaCl, 5 mM KCl, 1.8 mM CaCl2), 1.0 mM MgCl2, 5.6 mM glucose, 0.1% BSA, pH=7.40). For dose-response assays, compounds solubilized in 100% DMSO at 30 mM were serially diluted (1:3) first in 100% DMSO, and 2 intermediate dilutions with assay buffer were used to establish a final top concentration of 3 μM (in assay plate). Final DMSO concentration was kept constant at 0.1% across plates for all assays. Cortistatin-14 at 30 mM stock concentration was solubilized in HBSS+0.1% BSA, stored at −20° C. in 5 μl aliquots and discarded after one freeze-thaw cycle. Final concentration of agonist used in both dose-response and single point assays was 1 μM, prepared in assay buffer.
(§2) Antagonist equilibrium was established with 30 minute preincubation, followed by no wash, direct addition, and stimulation of agonist for 30 minutes at 37° C. For detection of β-hexosaminidase activity, assay plates were centrifuged and 5 μl of cell-free supernatant from each assay well was transferred to a black-walled black-bottomed 384-well plate. Substrate solution (1 mM 4-Methylumbelliferyl N-acetyl-β-D-glucosaminide in citrate buffer, pH=4.5, 15 μl) was added to each well and plates were incubated for 1 hour at 37° C. The plate was read on an EnVision XCite plate reader for umbelliferone fluorescence intensity (λex=355 nm, λem=460 nm). Background-subtracted data was analyzed using either GraphPad Prism or a custom Python script to calculate IC50 using either Log[Antagonist] vs. response (4 parameter) nonlinear regression (dose-response assays).

[2] = molecular target: T1, human MRGPRX2 (Homo sapiens, UniProt Q96LB1); assay: MRGPRX2 Activity Assay (IP-1 HTRF, antagonist mode); conditions: FlpIn TRex-MRGPRX2-HEK293 cells; versus 1 μM Cortistatin-14 agonist; 30 minutes preincubation
T1 construct: expressed in transfected cells; host or cells: FlpIn TRex HEK293 (TRex-MRGPRX2-HEK), doxycycline-induced
T1 sequence (Q96LB1 1-330): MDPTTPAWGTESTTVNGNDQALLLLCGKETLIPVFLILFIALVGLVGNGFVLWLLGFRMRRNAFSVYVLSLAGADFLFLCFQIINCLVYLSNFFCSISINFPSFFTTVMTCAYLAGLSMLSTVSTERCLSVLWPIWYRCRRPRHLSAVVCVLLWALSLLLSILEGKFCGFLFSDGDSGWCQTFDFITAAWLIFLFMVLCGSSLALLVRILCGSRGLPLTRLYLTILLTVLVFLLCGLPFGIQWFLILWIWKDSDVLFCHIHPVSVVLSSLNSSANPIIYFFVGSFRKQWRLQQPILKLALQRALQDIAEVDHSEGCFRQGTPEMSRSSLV
In short: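 Doxycycline-induced (100 ng/mL, 18-24 h) TRex HEK293 cells stably expressing human MRGPRX2, in HBSS/20 mM HEPES/0.1% BSA/10 mM LiCl. Compounds (top final 30 uM, 1% DMSO) preincubated 30 min, then agonist stimulation 1 h at 37° C without wash. IP-1 accumulation read by HTRF; IC50 from 4-parameter fit.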

[3] = test system: LAD-2 cells; assay: LAD2 Degranulation Assay (Protocol 2), β-hexosaminidase release; conditions: Homo sapiens, 0.5 μM Cortistatin-14, 2 h preincubation, cells without SCF 18-24 hours, top concentration 3 μM
Experimental: as §1
18-24 hours prior to experiment, LAD-2 cells were collected and transferred to growth media without SCF. On the day of experiment, cells were collected by centrifugation and seeded in 384-well assay plates, at 4,000 cells per well in 17 μl freshly made assay buffer (10 mM HEPES, 137 mM NaCl, 2.7 mM KCl, 1.8 mM CaCl2), 1.0 mM MgCl2, 5.6 mM glucose, 0.4 mM NaH2PO4, 0.04% BSA, pH=7.40). For dose-response assays, compounds solubilized in 100% DMSO at 30 mM were serially diluted (1:3) first in 100% DMSO, and 2 intermediate dilutions with assay buffer were used to establish a final top concentration of 3 μM (in assay plate). For single point assays, dilution of DMSO stocks to 250 nM (in assay plate) was performed in the same manner as described for dose-response assays. Final DMSO concentration was kept constant at 0.1% across plates for all assays. Cortistatin-14 at 30 mM stock concentration was solubilized in HBSS+0.1% BSA, stored at −20° C. in 5 μl aliquots and discarded after one freeze-thaw cycle. Final concentration of agonist used in both dose-response and single point assays was 0.5 μM, prepared in assay buffer.
as §2, with “with 2 h” for “with 30 minute”, “[…])” for “15 μl)”, “(dose-response assays) or % control β-hexosaminidase activity (single point” for “(dose-response”

Row | pIC50 [1] | pIC50 [2] | pIC50 [3] | Compound
1 | 8.48 | 8.39 |  | C[C@@H](C(=O)Nc1cn(Cc2cc(F)cc(F)c2F)cn1)N1CCC(F)(F)[C@@H](c2cc[n+]([O-])cc2)C1 [Compound 39, 4-((S)-4,4-difluoro-1-((S)-1-oxo-1-((1-(2,3,5-trifluorobenzyl)-1H-imidazol-4-yl)amino)propan-2-yl)piperidin-3-yl)pyridine 1-oxide]
2 | 6.67 | 6.66 |  | O=C(Nc1cn(Cc2cc(F)cc(F)c2)cn1)[C@@H]1C(F)(F)C12CCC2 [Compound 29, (R)—N-(1-(3,5-difluorobenzyl)-1H-imidazol-4-yl)-2,2-difluorospiro[2.3]hexane-1-carboxamide]
3 | 7.29 | 7.74 |  | C[C@H](C(=O)Nc1cn(Cc2cc(F)cc(F)c2)c(C(F)(F)F)n1)N1CCC(F)(F)[C@H](c2ccc(=O)[nH]c2)C1 (single isomer, unassigned) [Compound 77]
4 | 6.01 | 7.12 |  | C[C@@H](C(=O)Nc1noc(Cc2cc(F)cc(F)c2)n1)N1CCC(F)(F)[C@@H](c2cc[n+]([O-])cc2)C1 (single isomer, unassigned) [Compound 56]
5 | 8.80 | 8.68 |  | Cc1nc(NC(=O)[C@H](C)N2CCC(F)(F)[C@@H](c3cc[n+]([O-])cc3)C2)cn1Cc1cc(F)cc(F)c1 (single isomer, unassigned) [Compound 19]
6 | 7.55 | 7.77 |  | Cc1nc(NC(=O)[C@H](C)N2CCC(F)(F)[C@@H](c3cc[n+]([O-])cc3)C2)cn1Cc1ccc(F)cc1F (single isomer, unassigned) [Compound 9]
7 | 7.66 | 8.40 |  | C[C@H](C(=O)Nc1cn(Cc2cc(F)cc(F)c2)cn1)N1CCC(F)(F)[C@@H](c2ccc(=O)[nH]c2)C1 (single isomer, unassigned) [Compound 55]
8 | 7.60 | 7.96 |  | C[C@@H](C(=O)Nc1cn(Cc2cc(F)c(F)c(F)c2)cn1)N1CCC(F)(F)[C@@H](c2cc[n+]([O-])cc2)C1 [Compound 34, 4-((S)-4,4-difluoro-1-((S)-1-oxo-1-((1-(3,4,5-trifluorobenzyl)-1H-imidazol-4-yl)amino)propan-2-yl)piperidin-3-yl)pyridine 1-oxide]
9 | 7.24 | 8.10 |  | C[C@@H](C(=O)Nc1cn(Cc2cc(F)ccc2Cl)cn1)N1CCC(F)(F)[C@@H](c2cc[n+]([O-])cc2)C1 [Compound 35, 4-((S)-1-((S)-1-((1-(2-chloro-5-fluorobenzyl)-1H-imidazol-4-yl)amino)-1-oxopropan-2-yl)-4,4-difluoropiperidin-3-yl)pyridine 1-oxide]
10 | 7.40 | 7.89 |  | C[C@H](C(=O)Nc1cn(Cc2cc(F)cc(F)c2)c(C(F)(F)F)n1)N1CCC(F)(F)[C@@H](c2cc[n+]([O-])cc2)C1 (single isomer, unassigned) [Compound 26]
11 | < 5.52 | 6.12 |  | C[C@@H](C(=O)Nc1cn(Cc2cc(F)cc(F)c2)c(Cl)n1)N1CCC(F)(F)[C@@H](c2cc[n+]([O-])cc2)C1 (single isomer, unassigned) [Compound 80]
12 | 7.89 | 8.10 | 7.92 | C[C@H](C(=O)Nc1cn(Cc2cc(F)cc(F)c2)c(C(F)F)n1)N1CCC(F)(F)[C@@H](c2cc[n+]([O-])cc2)C1 (single isomer, unassigned) [Compound 83]
13 | 7.00 | 7.55 |  | C[C@H](C(=O)Nc1nc2ccccc2s1)N1CCC(F)(F)[C@@H](c2cc[n+]([O-])cc2)C1 (single isomer, unassigned) [Compound 85]
14 | 5.99 | 6.11 |  | C[C@@H](C(=O)Nc1cn(Cc2cc(F)cc(C#N)c2)cn1)N1CCC(F)(F)[C@@H](c2cc[n+]([O-])cc2)C1 [Compound 53, 4-((S)-1-((S)-1-((1-(3-cyano-5-fluorobenzyl)-1H-imidazol-4-yl)amino)-1-oxopropan-2-yl)-4,4-difluoropiperidin-3-yl)pyridine 1-oxide]
15 | 7.52 | 7.64 |  | C[C@H](C(=O)Nc1cn(Cc2cc(F)cc(F)c2)cn1)N1CCC(F)(F)[C@@H](c2ccc(=O)n(C)c2)C1 (single isomer, unassigned) [Compound 68]
16 | 9.15 | 8.48 |  | Cc1nc(NC(=O)[C@H](C)N2CCC(F)(F)CC2)cn1Cc1cc(F)cc(F)c1 (single isomer, unassigned) [Compound 21]
17 | 7.72 | 8.68 |  | C[C@H](C(=O)Nc1coc(Cc2cc(F)cc(F)c2)n1)N1CCC(F)(F)[C@@H](c2cc[n+]([O-])cc2)C1 (single isomer, unassigned) [Compound 28]
18 | < 5.52 | 7.35 |  | C[C@@H](C(=O)Nc1cn(Cc2ccc(F)cc2F)c(C(F)(F)F)n1)N1CCC(F)(F)[C@@H](c2cc[n+]([O-])cc2)C1 (single isomer, unassigned) [Compound 7]
19 | 7.70 | 7.92 |  | C[C@H](C(=O)Nc1cn(Cc2cc(F)cc(F)c2)cn1)N1CCC(F)(F)[C@@H](c2c[nH]c(=O)c(CO)c2)C1 (single isomer, unassigned) [Compound 72]
